Reference: patent US20070117743A1, “New antitumoral compounds” (priority 2003, published 2007)

Experiments:
Format in all cases: cell-based, human
DU-145 = assay: SRB colorimetric assay of cell growth and viability, DU-145; conditions: 48 hours exposure, SRB
PANC-1 = assay: SRB colorimetric assay of cell growth and viability, PANC-1; conditions: 48 hours exposure, SRB; for CC50: read-out: LC50 PANC-1
HeLa = assay: SRB colorimetric assay of cell growth and viability, HeLa; conditions: 48 hours exposure, SRB; for CC50: read-out: LC50 HELA
SK-BR-3 = assay: SRB colorimetric assay of cell growth and viability, SK-BR-3; conditions: 48 hours exposure, SRB
LoVo = assay: SRB colorimetric assay of cell growth and viability, LoVo; conditions: 48 hours exposure, SRB; for CC50: read-out: LC50 LOVO
IGROV-ET = assay: SRB colorimetric assay of cell growth and viability, IGROV-ET; conditions: 48 hours exposure, SRB; for CC50: read-out: LC50 IGROV-ET
HT-29 = assay: SRB colorimetric assay of cell growth and viability, HT-29; conditions: 48 hours exposure, SRB; for GI50: read-out: GI50 HT-29; for CC50: read-out: LC50 HT-29
LNCaP = assay: SRB colorimetric assay of cell growth and viability, LNCaP; conditions: 48 hours exposure, SRB; for GI50: read-out: GI50 LN-caP; for CC50: read-out: LC50 LN-caP
LoVo-Dox = assay: SRB colorimetric assay of cell growth and viability, LoVo-Dox; conditions: 48 hours exposure, SRB; for CC50: read-out: LC50 LOVO-DOX
Method in brief: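 After 48 hours continuous exposure to samples spanning 10 to 10^−8 μg/mL, biomass was quantified by sulforhodamine B staining of TCA-fixed cells (OD 490 nm). Cells, 5×10^3 per well in RPMI 1640 10% FBS, had attached 18 hours first; GI, TGI and LC derived from triplicate wells.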

HeLa-APL = assay: SRB colorimetric assay of cell growth and viability, HeLa-APL; conditions: 48 hours exposure, SRB; for CC50: read-out: LC50 HELA-APL
A-549 = assay: SRB colorimetric assay of cell growth and viability, A-549; conditions: 48 hours exposure, SRB; for GI50: read-out: GI50 A-549; for CC50: read-out: LC50 A-549
SK-MEL-28 = assay: SRB colorimetric assay of cell growth and viability, SK-MEL-28; conditions: 48 hours exposure, SRB; for CC50: read-out: LC50 MEL-28
IGROV-1 = assay: SRB colorimetric assay of cell growth and viability, IGROV-1; conditions: 48 hours exposure, SRB

Row | SMILES | GI50 (DU-145) | LC50 (concentration causing 50% net cell kill) (DU-145) | TGI DU-145 (DU-145) | GI50 (PANC-1) | TGI PANC-1 (PANC-1) | CC50 (PANC-1) | GI50 (HeLa) | TGI HELA (HeLa) | CC50 (HeLa) | GI50 (SK-BR-3) | LC50 (SK-BR-3) | TGI SK-BR-3 (SK-BR-3) | GI50 (LoVo) | TGI LOVO (LoVo) | CC50 (LoVo) | GI50 (IGROV-ET) | TGI IGROV-ET (IGROV-ET) | CC50 (IGROV-ET) | TGI HT-29 (HT-29) | GI50 (HT-29) | further results
1 | C/C=C1\NC(=O)[C@H](Cc2ccc(I)cc2)NC(=O)[C@@H](C(C)C)NC(=O)[C@@H]([C@@H](C)CC)NC(=O)[C@H](NC(=O)[C@H](NC(=O)[C@H](CCCN)NC(=O)[C@H]2CCCN2C(=O)[C@H](NC(=O)[C@@H](NC(=O)[C@@H](NC(=O)[C@H](NC(=O)CC[C@@H](C)CC)C(C)C)[C@@H](C)O)C(C)C)C(C)C)[C@@H](C)CC)[C@@H](C)OC(=O)[C@H](C(C)C)NC1=O [Compound 72, [Phe(4-I)^3, (4S)-MeHex^14]-KF] | 0.132 µM | 0.425 µM | 2.37E−07 Molar | 0.885 µM | 1.68E−06 Molar | 3.2 µM | 0.133 µM | 2.24E−07 Molar | 0.379 µM | 0.125 µM | 0.416 µM | 2.28E−07 Molar | 0.129 µM | 2.35E−07 Molar | 0.428 µM | 0.259 µM | 3.84E−07 Molar | 0.57 µM | 2.30E−07 Molar | 0.12 µM | CC50 (HT-29): 0.441 µM; TGI LN-caP (LNCaP): 8.42E−07 Molar; GI50 (LNCaP): 0.27 µM; CC50 (LNCaP): 2.38 µM; GI50 (LoVo-Dox): 0.0498 µM; TGI LOVO-DOX (LoVo-Dox): 1.23E−07 Molar; CC50 (LoVo-Dox): 0.274 µM; GI50 (HeLa-APL): 0.287 µM; TGI HELA-APL (HeLa-APL): 7.73E−07 Molar; CC50 (HeLa-APL): 2.28 µM; TGI A-549 (A-549): 3.47E−07 Molar; GI50 (A-549): 0.214 µM; CC50 (A-549): 0.559 µM; GI50 (SK-MEL-28): 0.19 µM; TGI MEL-28 (SK-MEL-28): 4.05E−07 Molar; CC50 (SK-MEL-28): 1.2 µM; GI50 (IGROV-1): 0.17 µM; LC50 (concentration causing 50% net cell killing) (IGROV-1): 0.443 µM; TGI IGROV (IGROV-1): 2.74E−07 Molar
2 | C/C=C1\NC(=O)[C@H](Cc2c(F)c(F)c(F)c(F)c2F)NC(=O)[C@@H](C(C)C)NC(=O)[C@@H]([C@@H](C)CC)NC(=O)[C@H](NC(=O)[C@H](NC(=O)[C@H](CCCN)NC(=O)[C@H]2CCCN2C(=O)[C@H](NC(=O)[C@@H](NC(=O)[C@@H](NC(=O)[C@H](NC(=O)CC[C@@H](C)CC)C(C)C)[C@@H](C)O)C(C)C)C(C)C)[C@@H](C)CC)[C@@H](C)OC(=O)[C@H](C(C)C)NC1=O [Compound 71, [Phe(F5)^3, (4S)-MeHex^14]-KF] | 1.22 µM | 3.64 µM | 2.11E−06 Molar | 1.56 µM | 4.41E−06 Molar | 6.38 µM | 0.836 µM | 1.63E−06 Molar | 3.16 µM | 0.228 µM | 0.554 µM | 3.56E−07 Molar | 0.166 µM | 2.77E−07 Molar | 0.462 µM | 0.443 µM | 5.35E−07 Molar | 0.848 µM | 9.82E−07 Molar | 0.33 µM | CC50 (HT-29): 0.267 µM; TGI LN-caP (LNCaP): 1.12E−06 Molar; GI50 (LNCaP): 0.394 µM; CC50 (LNCaP): 2.7 µM; GI50 (LoVo-Dox): 0.184 µM; TGI LOVO-DOX (LoVo-Dox): 2.90E−07 Molar; CC50 (LoVo-Dox): 0.456 µM; GI50 (HeLa-APL): 1.33 µM; TGI HELA-APL (HeLa-APL): 2.22E−06 Molar; CC50 (HeLa-APL): 3.7 µM; TGI A-549 (A-549): 2.62E−06 Molar; GI50 (A-549): 1.75 µM; CC50 (A-549): 3.92 µM; GI50 (SK-MEL-28): 1.52 µM; TGI MEL-28 (SK-MEL-28): 2.40E−06 Molar; CC50 (SK-MEL-28): 3.8 µM; GI50 (IGROV-1): 0.526 µM; LC50 (concentration causing 50% net cell killing) (IGROV-1): 2.72 µM; TGI IGROV (IGROV-1): 1.21E−06 Molar
3 | C/C=C1\NC(=O)[C@H](Cc2ccc(Cl)c(Cl)c2)NC(=O)[C@@H](C(C)C)NC(=O)[C@@H]([C@@H](C)CC)NC(=O)[C@H](NC(=O)[C@H](NC(=O)[C@H](CCCN)NC(=O)[C@H]2CCCN2C(=O)[C@H](NC(=O)[C@@H](NC(=O)[C@@H](NC(=O)[C@H](NC(=O)CC[C@@H](C)CC)C(C)C)[C@@H](C)O)C(C)C)C(C)C)[C@@H](C)CC)[C@@H](C)OC(=O)[C@H](C(C)C)NC1=O [Compound 70, [Phe(3,4-Cl2)^3, (4S)-MeHex^14]-KF] | 0.142 µM | 0.465 µM | 2.57E−07 Molar | 1 µM | 1.85E−06 Molar | 3.42 µM | 0.125 µM | 2.22E−07 Molar | 0.397 µM | 0.0528 µM | 0.299 µM | 1.18E−08 Molar | 0.0685 µM | 4.11E−07 Molar | 1.73 µM | 0.112 µM | 2.09E−07 Molar | 0.387 µM | 2.13E−07 Molar | 0.111 µM | CC50 (HT-29): 0.412 µM; TGI LN-caP (LNCaP): 2.08E−07 Molar; GI50 (LNCaP): 0.0666 µM; CC50 (LNCaP): 6.47 µM; GI50 (LoVo-Dox): 0.0285 µM; TGI LOVO-DOX (LoVo-Dox): 8.15E−08 Molar; CC50 (LoVo-Dox): 0.612 µM; GI50 (HeLa-APL): 0.259 µM; TGI HELA-APL (HeLa-APL): 7.63E−07 Molar; CC50 (HeLa-APL): 2.24 µM; TGI A-549 (A-549): 3.32E−07 Molar; GI50 (A-549): 0.183 µM; CC50 (A-549): 0.604 µM; GI50 (SK-MEL-28): 0.12 µM; TGI MEL-28 (SK-MEL-28): 2.39E−07 Molar; CC50 (SK-MEL-28): 0.475 µM; GI50 (IGROV-1): 0.182 µM; LC50 (concentration causing 50% net cell killing) (IGROV-1): 0.487 µM; TGI IGROV (IGROV-1): 2.97E−07 Molar
4 | C/C=C1\NC(=O)[C@H](Cc2ccc([N+](=O)[O-])cc2)NC(=O)[C@@H](C(C)C)NC(=O)[C@@H]([C@@H](C)CC)NC(=O)[C@H](NC(=O)[C@H](NC(=O)[C@H](CCCN)NC(=O)[C@H]2CCCN2C(=O)[C@H](NC(=O)[C@@H](NC(=O)[C@@H](NC(=O)[C@H](NC(=O)CC[C@@H](C)CC)C(C)C)[C@@H](C)O)C(C)C)C(C)C)[C@@H](C)CC)[C@@H](C)OC(=O)[C@H](C(C)C)NC1=O [Compound 73, [Phe(4-NO2)^3, (4S)-MeHex^14]-KF] | 0.233 µM | 2.04 µM | 6.57E−07 Molar | 0.952 µM | 1.85E−06 Molar | 3.58 µM | 0.173 µM | 2.80E−07 Molar | 0.45 µM | 0.15 µM | 0.574 µM | 2.94E−07 Molar | 0.112 µM | 2.04E−07 Molar | 0.372 µM | 0.229 µM | 3.26E−07 Molar | 0.467 µM | 2.32E−07 Molar | 0.127 µM | CC50 (HT-29): 0.426 µM; TGI LN-caP (LNCaP): 8.41E−07 Molar; GI50 (LNCaP): 0.377 µM; CC50 (LNCaP): 2.32 µM; GI50 (LoVo-Dox): 0.0335 µM; TGI LOVO-DOX (LoVo-Dox): 9.46E−08 Molar; CC50 (LoVo-Dox): 0.255 µM; GI50 (HeLa-APL): 0.521 µM; TGI HELA-APL (HeLa-APL): 1.30E−06 Molar; CC50 (HeLa-APL): 2.95 µM; TGI A-549 (A-549): 1.24E−06 Molar; GI50 (A-549): 0.532 µM; CC50 (A-549): 2.76 µM; GI50 (SK-MEL-28): 0.223 µM; TGI MEL-28 (SK-MEL-28): 4.71E−07 Molar; CC50 (SK-MEL-28): 1.48 µM; GI50 (IGROV-1): 0.173 µM; LC50 (concentration causing 50% net cell killing) (IGROV-1): 0.488 µM; TGI IGROV (IGROV-1): 2.90E−07 Molar
